As usually defined, the IC50 is the point on the concentration scale where inhibition reaches its midpoint.

The text below walks through data of US9868717B2, “Tricyclic sulphonamide compounds and methods of making and using same” (Zafgen, Inc., priority 2012, dated 2018).

In the experiment the target is T1, Human recombinant MetAP2 (Homo sapiens, UniProt P50579).
T1 construct: made in house; host or cells: Sf9 insect cells
T1 sequence (P50579 whole entry): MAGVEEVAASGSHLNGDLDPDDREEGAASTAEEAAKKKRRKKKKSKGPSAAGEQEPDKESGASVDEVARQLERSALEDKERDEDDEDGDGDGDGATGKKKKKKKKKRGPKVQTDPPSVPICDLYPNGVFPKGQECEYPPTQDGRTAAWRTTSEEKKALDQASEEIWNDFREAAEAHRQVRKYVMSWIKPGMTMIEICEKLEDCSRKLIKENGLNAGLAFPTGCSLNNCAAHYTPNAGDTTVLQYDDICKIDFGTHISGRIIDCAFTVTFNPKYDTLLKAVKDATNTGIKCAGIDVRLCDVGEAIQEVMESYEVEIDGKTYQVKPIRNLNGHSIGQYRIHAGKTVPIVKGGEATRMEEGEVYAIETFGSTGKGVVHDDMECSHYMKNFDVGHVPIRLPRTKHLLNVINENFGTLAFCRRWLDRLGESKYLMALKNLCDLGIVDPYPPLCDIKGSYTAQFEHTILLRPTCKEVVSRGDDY
As to the kind of experiment: inhibition of recombinant human MetAP2 activity (MAS substrate, amino acid oxidase/Amplex red fluorescence). The note with it: manganese enzyme, 30 minutes at 25° C., pH 7.5, 0.75 mM MAS substrate, 1% DMSO. The class given is biochemical. How it is done: Compounds are tested for their capacity to inhibit recombinant human MetAP2 activity using the following assay.
Human recombinant MetAP2 expressed in Sf9 cells followed by affinity purification and EDTA treatment to remove endogenous active site cation was dialysed against MnCl2 to produce the manganese enzyme used in the assay. The assay was carried out for 30 minutes at 25° C. in 50 mM HEPES buffer containing 100 mM NaCl, pH 7.5 the presence of 0.75 mM Methionine-Alanine-Serine (MAS) substrate and 50 μg/ml amino acid oxidase using a dilution of purified MetAP2 giving >3-fold signal:noise. Cleavage of the substrate by MetAP2 and oxidation of free methionine by amino acid oxidase was detected and quantified using fluorescence generated by Amplex red (10-acetyl-3,7-dihydroxyphenoxazine) in combination with horseradish peroxidase which detects H2O2 released during the oxidation step. The fluorescent signal was detected using a multiwell fluorimeter. Compounds were diluted in DMSO prior to addition to assay buffer, the final DMSO concentration in the assay being 1%.
The IC50 is defined as the concentration at which a given compound achieves 50% inhibition of control. IC50 values are calculated using the XLfit software package (version 2.0.5).
Take `CC(C)(O)[C@H]1CCN(C/C=C\c2cc(F)ccc2S(=O)(=O)Nc2ccc3c(c2C(=O)O)OC[C@@H]2C[C@H]32)C1` [Example 27, (1aR,7bS)-5-(4-Fluoro-2-{(Z)-3-[(S)-3-(2-hydroxypropan-2-yl)pyrrolidin-1-yl]prop-1-enyl}benzenesulfonylamino)-1,1a,2,7b-tetrahydrocyclopropa[c]chromene-4-carboxylic acid]: the IC50 is below 50 nM.

For `CC(C)(O)[C@@H]1CCN(C/C=C\c2cc(F)ccc2S(=O)(=O)Nc2ccc3c(c2C(=O)O)OC[C@@H]2C[C@H]32)C1` [Example 28, (1aR,7bS)-5-(4-Fluoro-2-{(Z)-3-[(R)-3-(2-hydroxypropan-2-yl)pyrrolidin-1-yl]prop-1-enyl}benzenesulfonylamino)-1,1a,2,7b-tetrahydrocyclopropa[c]chromene-4-carboxylic acid], the IC50 is below 50 nM.

Consider `O=C(O)c1c(NS(=O)(=O)c2ccc(F)cc2CC2CC3CCCN3C2)ccc2c1OC[C@@H]1C[C@H]21` (stereo partly drawn) [Example 29, (1aR,7bS)-5-[4-Fluoro-2-(hexahydro-1H-pyrrolizin-2-ylmethyl)benzene-sulfonylamino]-1,1a,2,7b-tetrahydrocyclopropa[c]chromene-4-carboxylic acid], for which the IC50 was below 50 nM.

`CCN1CC[C@@H](Cc2ccccc2S(=O)(=O)Nc2ccc3c(c2C(=O)O)OC[C@@H]2C[C@H]32)C1` [Example 31, (1aR,7bS)-5-[2-((3R)-1-Ethylpyrrolidin-3-ylmethyl)benzenesulfonylamino]-1,1a,2,7b-tetrahydrocyclopropa[c]chromene-4-carboxylic acid]: the half-inhibitory concentration (IC50) is below 50 nM.

Turning to `CCN1CC[C@H](C(=O)NCc2cc(F)ccc2S(=O)(=O)Nc2ccc3c(c2C(=O)O)OC[C@@H]2C[C@H]32)C1` [Example 32, (1aR,7bS)-5-{2-[((S)-1-ethylpyrrolidine-3-carbonyl)aminomethyl]-4-fluoro-benzenesulfonylamino}-1,1a,2,7b-tetrahydrocyclopropa[c]chromene-4-carboxylic acid-formic acid (1:1)], the IC50 is below 50 nM.

As to `CCN1CC[C@@H](NCCc2cc(F)ccc2S(=O)(=O)Nc2ccc3c(c2C(=O)O)OC[C@@H]2C[C@H]32)C1` [Example 33, (1aR,7bS)-5-{2-[2-((R)-1-ethylpyrrolidin-3-ylamino)ethyl]-4-fluoro-benzene-sulfonylamino}-1,1a,2,7b-tetrahydrocyclopropa[c]chromene-4-carboxylic acid-formic acid (1:1)], the IC50 was below 50 nM.
